Laboratory results: PubChem BioAssay (NCI)
“And” between values parts separate entries of the source, which are not always exact repeats. Equal entries are not always repeated.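 In this assay, cells in 96-well plates receive the compound at five concentrations for 48 hours. Endpoints are linearly interpolated between the surrounding concentrations. The concentration for 50% growth inhibition is given as GI50. TGI denotes the concentration required for complete inhibition of growth.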

Legend:
Assay in all cases: DTP human tumour cell line panel, 48 h; in the data active = GI50 below about 0.43 µM; inactive = the rest
A498 renal = test system: A498 renal
IGROV1 ovarian = test system: IGROV1 ovarian
K-562 leukemia = test system: K-562 leukemia
MDA-MB-231 breast = test system: MDA-MB-231 breast
MDA-MB-435 = test system: MDA-MB-435
NCI/ADR-RES ovarian = test system: NCI/ADR-RES ovarian
OVCAR-8 ovarian = test system: OVCAR-8 ovarian
RPMI-8226 leukemia = test system: RPMI-8226 leukemia
SNB-75 CNS = test system: SNB-75 CNS
UACC-62 melanoma = test system: UACC-62 melanoma
UO-31 renal = test system: UO-31 renal

CCCc1c2c3ccccc3nc-2nc2ccccn12
> 100 µM: TGI (A498 renal) | TGI (IGROV1 ovarian) | TGI (K-562 leukemia) | TGI (MDA-MB-231 breast) | TGI (MDA-MB-435) | TGI (NCI/ADR-RES ovarian) | TGI (OVCAR-8 ovarian) | TGI (RPMI-8226 leukemia) | TGI (SNB-75 CNS) | TGI (UACC-62 melanoma) | TGI (UO-31 renal)

S=C(Nc1ccc(Br)cn1)NC12CC3CC(CC(C3)C1)C2
25.9 µM: TGI (OVCAR-8 ovarian)
30.2 µM: TGI (IGROV1 ovarian)
58 µM: TGI (MDA-MB-231 breast)
55.7 µM: TGI (NCI/ADR-RES ovarian)
43.4 µM: TGI (UACC-62 melanoma)
> 100 µM: TGI (A498 renal) | TGI (K-562 leukemia) | TGI (MDA-MB-435) | TGI (RPMI-8226 leukemia) | TGI (UO-31 renal)
40.8 µM: TGI (SNB-75 CNS)

CO[C@H]1O[C@@H]2CO[C@@H](c3ccccc3)O[C@H]2C[C@]12CCC/C=C\CO2
61.8 µM: TGI (SNB-75 CNS)
26.5 µM: TGI (MDA-MB-435)
25.2 µM: TGI (OVCAR-8 ovarian) | TGI (UO-31 renal)
35.7 µM: TGI (K-562 leukemia)
39.3 µM: TGI (MDA-MB-231 breast)
37.2 µM: TGI (A498 renal)
> 75 µM: TGI (UACC-62 melanoma)
73.6 µM: TGI (NCI/ADR-RES ovarian)

Cc1cc(=Nc2ccc3c(c2)c(N)cc(C)[n+]3C)nc(N)n1C
> 100 µM: TGI (A498 renal) | TGI (IGROV1 ovarian) | TGI (K-562 leukemia) | TGI (MDA-MB-231 breast) | TGI (MDA-MB-435) | TGI (NCI/ADR-RES ovarian) | TGI (OVCAR-8 ovarian) | TGI (RPMI-8226 leukemia) | TGI (SNB-75 CNS) | TGI (UACC-62 melanoma) | TGI (UO-31 renal)

CC(Cc1ccc(O)c(O)c1)C(C)Cc1ccc(O)c(O)c1 (centres undefined)
32.8 µM: TGI (UACC-62 melanoma)
28.3 µM: TGI (MDA-MB-435)
> 63.8 µM: TGI (RPMI-8226 leukemia)
33.6 µM: TGI (IGROV1 ovarian) | TGI (OVCAR-8 ovarian)
61.7 µM: TGI (SNB-75 CNS)
23.1 µM: TGI (UO-31 renal)
> 57 µM: TGI (MDA-MB-231 breast)
> 62.7 µM: TGI (K-562 leukemia)
90.1 µM: TGI (A498 renal)
64.7 µM: TGI (NCI/ADR-RES ovarian)

Cc1cc2c(-c3ccccc3)cc(=O)[nH]c2cc1N
> 100 µM: TGI (A498 renal) | TGI (IGROV1 ovarian) | TGI (K-562 leukemia) | TGI (MDA-MB-231 breast) | TGI (MDA-MB-435) | TGI (NCI/ADR-RES ovarian) | TGI (OVCAR-8 ovarian) | TGI (RPMI-8226 leukemia) | TGI (SNB-75 CNS) | TGI (UACC-62 melanoma) | TGI (UO-31 renal)

O=[N+]([O-])C1(C2([N+](=O)[O-])CCCC2)CCCC1
> 100 µM: TGI (A498 renal) | TGI (IGROV1 ovarian) | TGI (K-562 leukemia) | TGI (MDA-MB-231 breast) | TGI (MDA-MB-435) | TGI (NCI/ADR-RES ovarian) | TGI (OVCAR-8 ovarian) | TGI (RPMI-8226 leukemia) | TGI (SNB-75 CNS) | TGI (UACC-62 melanoma) | TGI (UO-31 renal)

CCOC(=O)c1nc2cc(C(F)(F)F)ccc2nc1Nc1ccc(Cl)c(Cl)c1
> 100 µM: TGI (A498 renal) | TGI (IGROV1 ovarian) | TGI (MDA-MB-231 breast) | TGI (MDA-MB-435) | TGI (NCI/ADR-RES ovarian) | TGI (OVCAR-8 ovarian) | TGI (RPMI-8226 leukemia) | TGI (SNB-75 CNS) | TGI (UACC-62 melanoma) | TGI (UO-31 renal)

Cc1cccc2c1C(=O)C(C1OC(=O)c3ccccc31)C2 (centres undefined)
> 100 µM: TGI (A498 renal) | TGI (IGROV1 ovarian) | TGI (K-562 leukemia) | TGI (MDA-MB-231 breast) | TGI (MDA-MB-435) | TGI (NCI/ADR-RES ovarian) | TGI (OVCAR-8 ovarian) | TGI (RPMI-8226 leukemia) | TGI (SNB-75 CNS) | TGI (UACC-62 melanoma) | TGI (UO-31 renal)

Cn1c(=O)n(CC(Br)CBr)c(=O)n(CC(Br)CBr)c1=O (centres undefined)
> 100 µM: TGI (A498 renal) | TGI (IGROV1 ovarian) | TGI (K-562 leukemia) | TGI (MDA-MB-231 breast) | TGI (MDA-MB-435) | TGI (NCI/ADR-RES ovarian) | TGI (OVCAR-8 ovarian) | TGI (SNB-75 CNS)
63.8 µM: TGI (RPMI-8226 leukemia)
97.6 µM: TGI (UO-31 renal)
72.8 µM: TGI (UACC-62 melanoma)

C[C@@H]1C(O)CC[C@H](C)C12CC=CC2=O (some centres undefined)
> 100 µM: TGI (A498 renal) | TGI (IGROV1 ovarian) | TGI (K-562 leukemia) | TGI (MDA-MB-231 breast) | TGI (MDA-MB-435) | TGI (NCI/ADR-RES ovarian) | TGI (RPMI-8226 leukemia) | TGI (UACC-62 melanoma) | TGI (UO-31 renal)

CCC1(C)N=C(C(N)=O)c2ncn(N=C(C)C)c2N1 (centres undefined)
> 100 µM: TGI (A498 renal) | TGI (IGROV1 ovarian) | TGI (K-562 leukemia) | TGI (MDA-MB-231 breast) | TGI (MDA-MB-435) | TGI (NCI/ADR-RES ovarian) | TGI (OVCAR-8 ovarian) | TGI (RPMI-8226 leukemia) | TGI (SNB-75 CNS) | TGI (UACC-62 melanoma)

CC(=O)c1cccc(NC2C(N)C(NC(=O)N(C)C)(C(C)O)C(C)(O)C2(O)COC(=O)c2c(C)cccc2O)c1 (centres undefined)
0.131 µM: TGI (OVCAR-8 ovarian)
0.194 µM and 0.257 µM: TGI (UO-31 renal)
< 0.001 µM: TGI (A498 renal)
0.0157 µM: TGI (MDA-MB-435)
0.15 µM: TGI (K-562 leukemia)
0.591 µM: TGI (NCI/ADR-RES ovarian)
0.119 µM: TGI (UACC-62 melanoma)
active: GI50 (SNB-75 CNS) < 0.001 µM
0.208 µM: TGI (MDA-MB-231 breast)

COCN1C(=O)[C@@H]2CCCN2C(=O)c2cc([N+](=O)[O-])ccc21
> 100 µM: TGI (A498 renal) | TGI (IGROV1 ovarian) | TGI (MDA-MB-231 breast) | TGI (MDA-MB-435) | TGI (NCI/ADR-RES ovarian) | TGI (OVCAR-8 ovarian) | TGI (SNB-75 CNS) | TGI (UACC-62 melanoma) | TGI (UO-31 renal)

O=C(/C=C/c1ccc(Cl)c(Cl)c1)Oc1ccc(/C=C2\CCCCC2=O)cc1
> 100 µM: TGI (A498 renal) | TGI (IGROV1 ovarian) | TGI (MDA-MB-231 breast) | TGI (MDA-MB-435) | TGI (NCI/ADR-RES ovarian) | TGI (OVCAR-8 ovarian) | TGI (RPMI-8226 leukemia) | TGI (SNB-75 CNS) | TGI (UACC-62 melanoma) | TGI (UO-31 renal)
